Results: ChEMBL document CHEMBL3085644, “Structure elucidation and antimalarial activity of apicidin F: an apicidin-like compound produced by Fusarium fujikuroi” (J Nat Prod, 2013)
pIC50: −log10 of the molar value. Where a SMILES comes first, the peptide text is derived from it. [ ]: non-standard residue; d: D form. Trp(1-OMe) = COn1cc(C[C@H](N)C(=O)O)c2ccccc21; Asu = N[C@@H](CCCCCC(=O)O)C(=O)O; dPip = O=C(O)[C@H]1CCCCN1

Legend:
Plasmodium falciparum [1] = assay: Antiplasmodial activity against Plasmodium falciparum NF54 assessed as [3H]-hypoxanthine incorporation after 48 hrs by liquid scintillation counting analysis; assay type: functional, organism-based
Plasmodium falciparum [2] = assay: Antiplasmodial activity against chloroquine-resistant Plasmodium falciparum Dd2 assessed as parasite growth inhibition after 48 hrs by light microscopic analysis; assay type: functional, organism-based; conditions: Dd2, 48 h

Row | pIC50 (Plasmodium falciparum [1]) | Structure (SMILES) | pIC50 (Plasmodium falciparum [2])
1 | 6.17 | COn1cc(C[C@@H]2NC(=O)[C@H](CCCCCC(=O)O)NC(=O)[C@H]3CCCCN3C(=O)[C@H](Cc3ccccc3)NC2=O)c2ccccc21 (cyclo([Asu][Trp(1-OMe)]F[dPip])) | –
2 | – | CCC(=O)CCCCC[C@@H]1NC(=O)[C@H]2CCCCN2C(=O)[C@H]([C@@H](C)CC)NC(=O)[C@H](Cc2cn(OC)c3ccccc23)NC1=O [APICIDIN] | 6.70
